Values of other authors in patent US9901098B2, “Methods for plant protection” (TDA Research, Inc, priority 2015, dated 2018).

## [O][Cl+][O-] [ClO2, chlorine dioxide]
Human workers
  permissible exposure level (PEL) in air: 0.1 ppm
microbes; aqueous solutions
  concentration that effectively kills microbes: ≤ 1 ppm
microbes; solutions containing 1 ppm ClO2 or less
  time required to kill microbes: as short as one minute
